Laboratory results: ChEMBL document CHEMBL1201862, “PubChem BioAssay data set” (2004)
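A five-concentration, 48-hour dose response in 96-well plates underlies each endpoint, interpolated linearly between surrounding concentrations. GI50 is the concentration that inhibits growth by half.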 The source made the active and inactive calls. No stated cut-off is given here; in the data, active = GI50 up to about 1.1 µM and inactive = higher.

Legend:
Assay in all cases: inhibition of tumour cell growth, NCI panel, 48 h
HT-29 = tested on: HT-29
UACC-257 = tested on: UACC-257
KM12 = tested on: KM12
SNB-19 = tested on: SNB-19
K562 = tested on: K562
MOLT-4 = tested on: MOLT-4
ACHN = tested on: ACHN
SK-MEL-28 = tested on: SK-MEL-28
UO-31 = tested on: UO-31
RPMI-8226 = tested on: RPMI-8226
OVCAR-8 = tested on: OVCAR-8
UACC-62 = tested on: UACC-62
OVCAR-4 = tested on: OVCAR-4
TK-10 = tested on: TK-10
M14 = tested on: M14
RXF 393 = tested on: RXF 393
LOX IMVI = tested on: LOX IMVI

Measured: GI50

Cc1cc2c(cc1C)[n+]([O-])c(C(=O)C/C(=N/NC(=S)NN)C(=O)Nc1cccc(C(F)(F)F)c1)c[n+]2[O-]
inactive: HT-29 > 100 µM | UACC-257 > 100 µM | KM12 > 100 µM | SNB-19 34 µM | K562 > 100 µM | MOLT-4 > 100 µM | ACHN > 100 µM | SK-MEL-28 > 100 µM | UO-31 > 100 µM | RPMI-8226 > 100 µM | OVCAR-8 > 100 µM | UACC-62 > 100 µM | OVCAR-4 > 100 µM | TK-10 > 100 µM | M14 > 100 µM

O=C1C2C=CC(n3[nH]c(=O)n(Cc4ccccc4)c3=O)CC2C(=O)N1c1cccc(Cl)c1 (centres undefined)
inactive: HT-29 > 100 µM | UACC-257 > 100 µM | KM12 > 100 µM | SNB-19 > 100 µM | K562 > 100 µM | RXF 393 > 100 µM | ACHN > 100 µM | SK-MEL-28 > 100 µM | UO-31 > 100 µM | OVCAR-8 > 100 µM | UACC-62 > 100 µM | OVCAR-4 > 100 µM | TK-10 > 100 µM | M14 > 100 µM | LOX IMVI > 100 µM

OCc1cc2c(cn1)[nH]c1ccc(NCc3ccccc3)cc12
inactive: HT-29 14.8 µM | UACC-257 23.3 µM | KM12 18.6 µM | SNB-19 37.3 µM | K562 23 µM | MOLT-4 17.5 µM | RXF 393 20.3 µM | ACHN 20 µM | SK-MEL-28 16.1 µM | UO-31 20.7 µM | RPMI-8226 11 µM | OVCAR-8 29.4 µM | UACC-62 17.2 µM | OVCAR-4 26.5 µM | TK-10 30.6 µM | M14 16.4 µM | LOX IMVI 28.4 µM

COc1ccc(Cc2c3cc(O)c([O-])cc3cc[n+]2C)cc1
inactive: HT-29 52.7 µM | UACC-257 28.4 µM | KM12 40.2 µM | SNB-19 35 µM | K562 6.61 µM | MOLT-4 10.2 µM | RXF 393 11.8 µM | ACHN 6.93 µM | SK-MEL-28 22.3 µM | UO-31 9.95 µM | RPMI-8226 28.4 µM | OVCAR-8 29 µM | UACC-62 23.9 µM | OVCAR-4 51.3 µM | TK-10 98.4 µM | M14 11.4 µM | LOX IMVI 13.3 µM

O=C1OC(c2ccccc2)=N/C1=C/NC(Cc1ccccc1)C(=O)O (centres undefined)
inactive: HT-29 > 100 µM | UACC-257 > 100 µM | KM12 > 100 µM | SNB-19 > 100 µM | K562 > 100 µM | MOLT-4 > 100 µM | RXF 393 > 100 µM | ACHN > 100 µM | SK-MEL-28 > 100 µM | UO-31 > 100 µM | RPMI-8226 > 100 µM | OVCAR-8 > 100 µM | UACC-62 > 100 µM | OVCAR-4 > 100 µM | TK-10 > 100 µM | M14 > 100 µM | LOX IMVI > 100 µM

COc1ccc(/C=C/c2nnc(S)[nH]2)cc1OC
inactive: HT-29 > 100 µM | UACC-257 > 100 µM | SNB-19 > 100 µM | K562 > 100 µM | MOLT-4 > 100 µM | RXF 393 > 100 µM | ACHN > 100 µM | SK-MEL-28 > 100 µM | UO-31 > 100 µM | RPMI-8226 > 100 µM | OVCAR-8 > 100 µM | UACC-62 > 100 µM | OVCAR-4 > 100 µM | TK-10 > 100 µM | M14 > 100 µM | LOX IMVI > 100 µM

COc1ccc(/C(C)=N/NC(N)=S)c(OC)c1
inactive: HT-29 > 100 µM | UACC-257 > 100 µM | KM12 > 100 µM | SNB-19 > 100 µM | K562 > 100 µM | MOLT-4 > 100 µM | RXF 393 > 100 µM | ACHN > 100 µM | SK-MEL-28 > 100 µM | UO-31 > 100 µM | RPMI-8226 > 100 µM | OVCAR-8 > 100 µM | UACC-62 > 100 µM | TK-10 > 100 µM | M14 > 100 µM | LOX IMVI > 100 µM

COc1cc(CO)cc2c1[nH]c1ccccc12 [KOENOLINE]
inactive: HT-29 > 25 µM | KM12 > 25 µM | SNB-19 > 25 µM | K562 11.9 µM | MOLT-4 > 25 µM | RXF 393 > 25 µM | ACHN > 25 µM | SK-MEL-28 > 25 µM | UO-31 > 25 µM | RPMI-8226 > 25 µM | OVCAR-8 > 25 µM | UACC-62 > 25 µM | OVCAR-4 > 25 µM | TK-10 > 25 µM | M14 > 25 µM | LOX IMVI > 25 µM
